In ChEMBL document CHEMBL1124889, “Alfred Burger award address. Bioactive alkaloids. 4. Results of recent investigations with colchicine and physostigmine” (J Med Chem, 1990):

Assays:
Cholinesterase [1] = molecular target: T1, Cholinesterase (Homo sapiens, UniProt P06276); experiment: Inhibitory activity against Butyrylcholinesterase in cortex; type: tissue-based
Cholinesterase [2] = molecular target: T1, Cholinesterase; experiment: Inhibitory activity against Butyrylcholinesterase in plasma; type: cell-free
Acetylcholinesterase [3] = molecular target: Acetylcholinesterase (Electrophorus electricus, UniProt O42275); experiment: Inhibitory activity against Acetylcholinesterase in electric eel
Sequence of Acetylcholinesterase (Electrophorus electricus, UniProt O42275) (O42275 whole entry): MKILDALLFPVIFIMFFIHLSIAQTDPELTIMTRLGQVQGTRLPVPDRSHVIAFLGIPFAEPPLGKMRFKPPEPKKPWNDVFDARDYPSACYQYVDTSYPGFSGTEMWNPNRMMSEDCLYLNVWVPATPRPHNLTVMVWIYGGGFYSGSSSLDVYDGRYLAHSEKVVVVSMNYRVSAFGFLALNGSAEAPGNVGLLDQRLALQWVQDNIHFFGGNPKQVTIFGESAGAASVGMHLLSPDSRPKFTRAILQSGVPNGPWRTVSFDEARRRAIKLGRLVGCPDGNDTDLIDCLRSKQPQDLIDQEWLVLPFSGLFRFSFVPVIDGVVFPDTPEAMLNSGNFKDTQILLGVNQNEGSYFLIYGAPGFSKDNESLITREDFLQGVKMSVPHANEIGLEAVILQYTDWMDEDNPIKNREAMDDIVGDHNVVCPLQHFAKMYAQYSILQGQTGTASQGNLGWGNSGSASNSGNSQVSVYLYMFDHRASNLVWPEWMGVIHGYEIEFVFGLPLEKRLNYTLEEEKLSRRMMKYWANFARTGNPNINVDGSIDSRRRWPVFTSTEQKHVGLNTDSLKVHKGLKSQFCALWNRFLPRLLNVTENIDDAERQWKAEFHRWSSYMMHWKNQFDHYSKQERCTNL

Acetylcholinesterase [4] = molecular target: T2, Acetylcholinesterase (Homo sapiens, UniProt P22303); experiment: Inhibitory activity against Acetylcholinesterase in cortex; type: tissue-based
T2 sequence (P22303 whole entry): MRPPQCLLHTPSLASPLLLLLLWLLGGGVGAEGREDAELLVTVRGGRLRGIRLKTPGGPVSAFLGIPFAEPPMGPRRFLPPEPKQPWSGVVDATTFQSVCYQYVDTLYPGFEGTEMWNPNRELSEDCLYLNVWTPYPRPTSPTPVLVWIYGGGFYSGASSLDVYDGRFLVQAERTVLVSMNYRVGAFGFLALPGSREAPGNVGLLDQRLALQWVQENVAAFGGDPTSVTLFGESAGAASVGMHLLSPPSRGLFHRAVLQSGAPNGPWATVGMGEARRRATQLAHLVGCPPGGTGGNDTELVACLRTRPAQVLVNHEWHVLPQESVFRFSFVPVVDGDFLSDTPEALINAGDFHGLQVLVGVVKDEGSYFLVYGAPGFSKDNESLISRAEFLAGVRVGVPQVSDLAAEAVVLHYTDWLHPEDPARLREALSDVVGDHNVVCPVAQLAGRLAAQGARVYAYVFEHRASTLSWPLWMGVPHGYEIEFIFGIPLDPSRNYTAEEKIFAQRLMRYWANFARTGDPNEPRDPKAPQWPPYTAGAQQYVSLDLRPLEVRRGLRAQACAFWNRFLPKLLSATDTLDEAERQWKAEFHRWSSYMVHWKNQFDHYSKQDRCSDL

Acetylcholinesterase [5] = molecular target: T2, Acetylcholinesterase; experiment: Inhibitory activity against Acetylcholinesterase in erythrocyte

T1 sequence (P06276 whole entry): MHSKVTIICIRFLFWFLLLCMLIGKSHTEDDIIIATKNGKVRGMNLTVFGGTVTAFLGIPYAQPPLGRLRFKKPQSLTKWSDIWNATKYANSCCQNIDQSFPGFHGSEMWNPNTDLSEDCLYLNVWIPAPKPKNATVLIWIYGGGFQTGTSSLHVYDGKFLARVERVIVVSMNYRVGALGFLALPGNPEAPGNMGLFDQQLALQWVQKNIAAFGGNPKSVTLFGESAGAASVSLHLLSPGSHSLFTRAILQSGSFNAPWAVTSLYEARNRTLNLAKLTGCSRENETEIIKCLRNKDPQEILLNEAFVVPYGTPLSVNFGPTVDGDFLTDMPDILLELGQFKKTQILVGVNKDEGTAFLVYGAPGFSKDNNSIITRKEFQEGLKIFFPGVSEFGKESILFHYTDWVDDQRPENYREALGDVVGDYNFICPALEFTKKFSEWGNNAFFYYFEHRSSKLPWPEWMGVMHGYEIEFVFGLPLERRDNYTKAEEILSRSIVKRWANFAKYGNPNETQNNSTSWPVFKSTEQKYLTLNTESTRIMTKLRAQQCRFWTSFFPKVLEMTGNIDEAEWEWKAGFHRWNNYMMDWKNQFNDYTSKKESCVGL

| SMILES | IC50 (Cholinesterase [1]) | IC50 (Cholinesterase [2]) | IC50 (Acetylcholinesterase [3]) | IC50 (Acetylcholinesterase [4]) | IC50 (Acetylcholinesterase [5]) |
| --- | --- | --- | --- | --- | --- |
| C=CCN1CC[C@@]2(C)c3cc(OC(=O)NC)ccc3N(C)[C@@H]12 | 16 nM | 3 nM |  |  |  |
| CN(C)C(=O)Oc1ccc2c(c1)[C@]1(C)CCN(C)[C@@H]1N2C | 3000 nM | 420 nM | 970 nM | 310 nM | 210 nM |
| CN1CC[C@@]2(C)c3cc(OC(=O)NC(C)(C)C)ccc3N(C)[C@@H]12 | 11000 nM | 2000 nM | > 10000 nM | 32000 nM | 23000 nM |
| CCCCCCCCNC(=O)Oc1ccc2c(c1)[C@]1(C)CCN(C)[C@@H]1N2C | 9 nM | 4 nM |  |  |  |
| COc1ccc(NC(=O)Oc2ccc3c(c2)[C@]2(C)CCN(C)[C@@H]2N3C)cc1 | 230 nM | 71 nM | 1700 nM |  |  |
| CNC(=O)Oc1ccc2c(c1)[C@]1(C)CCN(CCc3ccccc3)[C@@H]1N2C |  |  |  | 150 nM | 220 nM |
